Source: PMC4838890, “Dynamic and flexible H3K9me3 bridging via HP1β dimerization establishes a plastic state of condensed chromatin” (Nature Communications, 2016)
“Also recorded” adds a separate entry of the source.

What was measured:
[1] = molecular target: asymmetrically modified H3K9me3-mononucleosomes; test: SPR, immobilized asymmetric H3K9me3 mononucleosome; parameters: species or system Xenopus laevis; settings: SPR titration 0.024 to 50 µM, asymmetrically modified mononucleosome at 950 RU, one site-specific binding model; read-out: apparent Kd (Supplementary Fig. 8k)
[2] = molecular target: fluorescein-labeled H3K9me3-peptide; test: Fluorescence polarization (FP), H3K9me3 peptide; format: binding; settings: 150 mM NaCl, 10 mM triethanolamine pH 7.4, 0.1 mM EDTA, 2 mM DTT, 4°C, read-out: apparent Kd
Method: Experiments were performed in 10 mM triethanolamine HCl (pH 7.4), 150 mM NaCl, 0.1 mM EDTA, 2 mM DTT. Titration series of 10 μl volume in 384-well plates were read multiple times on a Plate CHAMELEON II plate reader (HIDEX Oy, Turku, Finland). Multiple readings and independent titration series were averaged after data normalization. […]
hHP1β) using mass spectrometry. For detailed listing of the identified crosslinks see Supplementary […]
(c) Binding of the indicated hHP1β wild type (WT) and mutant proteins to a fluorescein-labeled H3K9me3-peptide was analyzed by FP at 150 mM NaCl. Apparent Kd deduced from the fitted curves are […]
(d) Chromatin coprecipitation of hHP1β WT and mutant proteins with oligonucleosomes. Precipitated material was run on SDS-PAGE and stained with Coomassie Blue. Input, 10 %.
(e) Oligonucleosomes at 2.5 nM were incubated with hHP1β wild type (WT) or mutant proteins at 5 µM and 150 mM NaCl (saturating conditions). DNA remaining in the supernatant after centrifugation was incubated with EtBr and measured by fluorescence reading. Data were n ormalized to DNA levels present in the input. […]
(g) Oligonucleosomes at 6.7 nM were incubated with hHP1β wild type (WT) or mutant proteins at 5 µM and 100 mM NaCl (non-saturating conditions). DNA remaining in the supernatant after centrifugation was incubated with EtBr and measured by fluorescence reading. […]

[3] = tested on: H3K9me3 oligonucleosomes; test: Chromatin coprecipitation, H3K9me3 oligonucleosomes; format: binding, Xenopus laevis
Method: 6.7 nM oligonucleosomes were incubated with 1 μM recombinant protein in 100 μl binding buffer (10 mM triethanolamine (pH 7.5), 150 mM NaCl, 5 mM MgCl2, 0.1 mM EDTA, 0.1% (v/v) Triton-X100) for 1 h on ice. Precipitated chromatin complexes were recovered by centrifugation at 16,100g for 30 min at 4°C. Pellets were washed once with 0.5 ml binding buffer and centrifuged for 15 min at 4 °C. Precipitated material was resuspended in 10 μl 1 × SDS loading buffer and boiled for 5 min before running on SDS–PAGE.
(§1) Supplementary Table 1: Summary of conditions used in the different experiments of this study.
(§2) experiment result modification template Temp. [NaCl] [MgCl2]
(§3) chromatin Fig. 1e,f; Fig. S1f-h; H3K9me3 oligo- 4 150 5

[4] = tested on: H3K9me3 oligonucleosomes in the absence of the H4 N-terminal tail; test: Chromatin coprecipitation, H3K9me3 oligonucleosomes with tailless H4; format: binding, Xenopus laevis; settings: 150 mM NaCl, western blot
Method: […] Precipitated chromatin complexes were recovered by centrifugation at 16,100g for 30 min at 4°C. Pellets were washed once with 0.5 ml binding buffer and centrifuged for 15 min at 4 °C. Precipitated material was resuspended in 10 μl 1 × SDS loading buffer and boiled for 5 min before running on SDS–PAGE.
as §1, §2, §3

[5] = tested on: H3K9me3 oligonucleosomes; test: Fluorescence correlation spectroscopy (FCS), H3K9me3 oligonucleosomes; format: biochemical, Xenopus laevis; settings: 150 mM NaCl
Method: All fluorescence measurements were performed with a pulsed custom-built mode-locked Ti:Sa-Laser and a confocal two-photon fluorescence microscope setup. Detailed description of the experimental setup and the measurement procedure are available on request. In all cases 10 nM of the acceptor labelled species, ATTO 610-labelled nucleosomal array, was incubated with 20–200 μM of recombinant hHP1β in 10 μl of 10 mM triethanolamine HCl (pH 7.5), 0.1 mM EDTA, 150 mM NaCl at 4°C. For each sample the fluorescence correlation curve, fluorescence intensity and anisotropy values were determined at 22°C. Every data point was averaged over a minimum of 15 single measurements of 10 s each. Excitation was by two-photon mode.
The fluorescence data were analysed using the correlation function [drawing 1] , and the equation for free diffusion of particles [drawing 2] , where I(t) is the fluorescence intensity measured at time t, N the particle number, τD the diffusion time, and r0=0.25 the axis ratio of the focal region, considering the dimensions of a Gaussian beam waist.
Supplementary Figure 3: Analysis of chromatin clustering m ediated by hHP1β.
(a) Schematic representation of a stepwise precipitation and resolubilization experiment.
(b) Results of stepwise precipitation and resolubilization after clustering H3K9me3-oligonucleosomes by hHP1β at different concentrations. DNA remaining in the supernatant after centrifugation was incubated with EtBr and measured by fluorescence reading. Data were normalized to amounts present in the input.
Results of a representative experiment are shown.
(c) Instrumental setup used for two -photon fluorescence correlation spectroscopy (FCS). The beam of a pulsed Ti:Sa-Laser is reflected into a water immersion objective (O) via a dichroic mirror (M). The fluorescence light transmitted through this dichroic mirror is split up by a second dichroic mirror. Blow- […]
F: filter, L: lens, M: dichroic mirror, O:objective, PD:
(d) Scheme of the strategy used for FCS measurements. DNA of oligonucleosomes was labeled at the 5’- […]

Substance	Kd [1]	Kd [2]	specificity for H3K9me3 ([3]; chromatin coprecipitation, 5 mM MgCl2)	dependence of recovery on DNA sequence ([3]; chromatin on linearized pUC18 or 12 x 5S rDNA)	recovery at 3.5 mM and 7.0 mM MgCl2 with tailless H4 chromatin [4]	maximum hydrodynamic radius ([5]; 10 nM ATTO 610-labelled array, highest protein concentration)	EC50 ([5]; 23°C, read-out: half-maximal effect, FCS)	recovery with H3K9me3 oligonucleosomes ([3]; 6.7 nM oligonucleosomes, 1 μM protein, 150 mM NaCl, 5 mM MgCl2, 1 h on ice)	competition with hHP1β WT for interaction with H3K9me3 oligonucleosomes ([3]; competitive coprecipitation, Supplementary Fig. 2b)	complex formation by clustering (FCS) [5]
hHP1β WT: recombinant human heterochromatin protein 1β (GenBank NM_001127228), 185 aa	7.5 µM	5 ± 2 µM	coprecipitated only with H3K9me1/2/3 but not H3K9me0 oligonucleosomes	independent of the DNA sequence used for chromatin reconstitution	reduced recovery of hHP1β with H3K9me3 oligonucleosomes in the absence of the H4 N-terminal tail at 3.5 mM MgCl2; also recorded: recovery at 7.0 mM MgCl2 was comparable to the level obtained with H3K9me3 oligonucleosomes containing WT core histones	450 nm	3.5 µM			
hHP1β I161A: CSD point mutant of hHP1β incapable of dimerization								neither the monomeric CD alone nor an I161A mutant protein, which is incapable of dimerization[8], were significantly recovered with H3K9me3 oligonucleosomes	ineffective in competing with hHP1β WT	No such complex formation by clustering
